Results published in paper PMC9822553 (iScience, 2023).

How the values were obtained:
Format in all cases: cell-based
[1] = test system: SARS-CoV-2 strain FFM3; test: microbe, parasite or virus in culture; conditions: Severe acute respiratory syndrome coronavirus 2, read-out: IC50 concentration
[2] = test system: SARS-CoV-2 variant G614
[3] = test system: SARS-CoV-2 variant G614; remark: listed apart in the source

SMILES	IC50 [1] [nM]	effect on SARS-CoV-2 replication and CPE formation [2]	effect on caspase 3/7 activity [3]
CCC(CC)COC(=O)[C@H](C)N[P@](=O)(OC[C@H]1O[C@@](C#N)(c2ccc3c(N)ncnn23)[C@H](O)[C@@H]1O)Oc1ccccc1 [remdesivir]	500		
C[C@H](NC(=O)C(=O)Nc1ccccc1C(C)(C)C)C(=O)N[C@@H](CC(=O)O)C(=O)COc1c(F)c(F)cc(F)c1F [emricasan]		did not interfere with SARS-CoV-2 replication and CPE formation	suppressing caspase 3/7 activity
